Reference: patent US20260028365A1 (BIOGEN MA INC., priority 2022, published 2026)

What was measured:
JH2 domain of human Tyk2 = JH2 domain of human Tyk2 (Homo sapiens (Human), UniProt P29597); experiment: JH2 Biochemical Assay (TR-FRET probe displacement); format: binding; details: JH2 domain of human Tyk2, TR-FRET probe displacement
Tyk2 = Tyk2 (Homo sapiens (Human), UniProt P29597); experiment: pSTAT4 Cell Assay (MSD, NK92 cells); format: cell-based; details: MSD
Sequence of Tyk2 (P29597 whole entry): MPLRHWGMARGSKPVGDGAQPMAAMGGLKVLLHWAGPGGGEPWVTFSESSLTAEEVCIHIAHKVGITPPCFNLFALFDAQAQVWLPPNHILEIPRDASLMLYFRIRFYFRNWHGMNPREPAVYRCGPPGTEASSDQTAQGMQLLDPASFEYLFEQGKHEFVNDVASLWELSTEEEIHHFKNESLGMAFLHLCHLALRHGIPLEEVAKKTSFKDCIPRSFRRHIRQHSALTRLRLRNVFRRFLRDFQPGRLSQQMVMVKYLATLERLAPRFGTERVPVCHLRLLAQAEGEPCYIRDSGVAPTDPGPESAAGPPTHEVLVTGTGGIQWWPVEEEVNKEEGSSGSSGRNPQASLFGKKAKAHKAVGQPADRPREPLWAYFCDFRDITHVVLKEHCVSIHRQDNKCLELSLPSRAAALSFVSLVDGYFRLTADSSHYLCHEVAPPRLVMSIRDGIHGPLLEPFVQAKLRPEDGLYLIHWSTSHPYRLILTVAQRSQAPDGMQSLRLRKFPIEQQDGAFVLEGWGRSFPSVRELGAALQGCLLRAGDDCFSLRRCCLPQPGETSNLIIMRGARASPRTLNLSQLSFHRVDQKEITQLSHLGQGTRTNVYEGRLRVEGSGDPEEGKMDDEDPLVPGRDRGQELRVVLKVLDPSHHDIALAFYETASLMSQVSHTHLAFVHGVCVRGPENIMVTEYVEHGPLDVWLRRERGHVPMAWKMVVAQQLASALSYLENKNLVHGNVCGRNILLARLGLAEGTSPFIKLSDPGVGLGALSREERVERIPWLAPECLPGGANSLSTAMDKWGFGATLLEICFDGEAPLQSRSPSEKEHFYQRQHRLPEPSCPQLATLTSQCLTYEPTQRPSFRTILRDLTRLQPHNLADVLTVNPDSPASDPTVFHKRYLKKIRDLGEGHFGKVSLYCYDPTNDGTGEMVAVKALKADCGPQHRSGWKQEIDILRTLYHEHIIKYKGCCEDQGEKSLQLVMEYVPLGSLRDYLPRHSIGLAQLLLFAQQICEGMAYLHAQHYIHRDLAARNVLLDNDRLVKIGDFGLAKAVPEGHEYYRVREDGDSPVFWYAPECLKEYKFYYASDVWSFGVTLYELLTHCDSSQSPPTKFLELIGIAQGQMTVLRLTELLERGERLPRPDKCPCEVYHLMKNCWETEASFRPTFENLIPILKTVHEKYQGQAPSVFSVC

Sequence of JH2 domain of human Tyk2 (P29597 575-876): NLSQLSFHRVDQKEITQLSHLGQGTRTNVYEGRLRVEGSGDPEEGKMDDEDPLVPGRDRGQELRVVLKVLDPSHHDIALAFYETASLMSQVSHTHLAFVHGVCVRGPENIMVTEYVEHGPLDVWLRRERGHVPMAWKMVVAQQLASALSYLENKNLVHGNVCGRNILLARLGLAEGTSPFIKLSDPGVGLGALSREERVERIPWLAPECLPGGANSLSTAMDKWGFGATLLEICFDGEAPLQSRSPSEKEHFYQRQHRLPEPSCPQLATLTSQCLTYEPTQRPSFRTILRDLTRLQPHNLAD

**Q.** For `COc1ccnc(Nc2cc(NC(C)=O)ncc2-c2ccn(C)n2)n1` [Example 553, N-(4-((4-methoxypyrimidin-2-yl)amino)-5-(1-methyl-1H-pyrazol-3-yl)pyridin-2-yl)acetamide], which IC50 (JH2 domain of human Tyk2) is on record?
**A.** 0.01 to 0.1 µM

**Q.** What about the IC50 (Tyk2) of the same compound?
**A.** 0.1 to 1 µM

**Q.** How did the IC50 (JH2 domain of human Tyk2) turn out when `CC(=O)Nc1cc(Nc2cc(C)nc(C34COC(C)(C3)C4)n2)c(-c2ccn(C)n2)cn1` [Example 554, N-(5-(1-methyl-1H-pyrazol-3-yl)-4-((6-methyl-2-(1-methyl-2-oxabicyclo[2.1.1]hexan-4-yl)pyrimidin-4-yl)amino)pyridin-2-yl)acetamide] was run?
**A.** 0.01 to 0.1 µM

**Q.** And the IC50 (Tyk2)?
**A.** ≥ 1 µM

**Q.** Which results are given for `CC(=O)Nc1cc(Nc2cc(C)nc(C3CCOC3)n2)c(-c2ccn(C)n2)cn1` (centres unmarked) [Example 555, N-(5-(1-methyl-1H-pyrazol-3-yl)-4-((6-methyl-2-(tetrahydrofuran-3-yl)pyrimidin-4-yl)amino)pyridin-2-yl)acetamide]?
**A.** IC50 (JH2 domain of human Tyk2): ≤ 0.01 µM; IC50 (Tyk2): 0.01 to 0.1 µM

**Q.** For `CC(=O)Nc1cc(Nc2ccnc(C3CCOC3)n2)c(-c2ccn(C)n2)cn1` (centres unmarked) [Example 556, N-(5-(1-methyl-1H-pyrazol-3-yl)-4-((2-(tetrahydrofuran-3-yl)pyrimidin-4-yl)amino)pyridin-2-yl)acetamide], which IC50 (JH2 domain of human Tyk2) is on record?
**A.** ≤ 0.01 µM

**Q.** And the IC50 (Tyk2)?
**A.** 0.01 to 0.1 µM

**Q.** Which results are given for `CC(=O)Nc1cc(Nc2cc(C)nc(C34CCC(C3)OC4)n2)c(-c2ccn(C)n2)cn1` (centres unmarked) [Example 557, N-(4-((2-(2-oxabicyclo[2.2.1]heptan-4-yl)-6-methylpyrimidin-4-yl)amino)-5-(1-methyl-1H-pyrazol-3-yl)pyridin-2-yl)acetamide]?
**A.** IC50 (JH2 domain of human Tyk2): ≤ 0.01 µM; IC50 (Tyk2): 0.01 to 0.1 µM

**Q.** `CC(=O)Nc1cc(Nc2cc(C)nc(C3(F)CC3)n2)c(-c2ccn(C)n2)cn1` [Example 558, N-(4-((2-(1-fluorocyclopropyl)-6-methylpyrimidin-4-yl)amino)-5-(1-methyl-1H-pyrazol-3-yl)pyridin-2-yl)acetamide] was tested. Which IC50 (JH2 domain of human Tyk2) did it give?
**A.** ≤ 0.01 µM

**Q.** And the IC50 (Tyk2)?
**A.** ≤ 0.01 µM

**Q.** For `COCCOc1nc(C)cc(Nc2cc(NC(C)=O)ncc2-c2ccn(C)n2)n1` [Example 559, N-(4-((2-(2-methoxyethoxy)-6-methylpyrimidin-4-yl)amino)-5-(1-methyl-1H-pyrazol-3-yl)pyridin-2-yl)acetamide], which IC50 (JH2 domain of human Tyk2) is on record?
**A.** ≤ 0.01 µM

**Q.** What about the IC50 (Tyk2) of the same compound?
**A.** 0.01 to 0.1 µM

**Q.** Which results are given for `CC(=O)Nc1cc(Nc2cc(C)nc([C@]34CO[C@](CF)(C3)C4)n2)c(-c2ccn(C)n2)cn1` [Example 560, N-(4-((2-((1s,4s)-1-(fluoromethyl)-2-oxabicyclo[2.1.1]hexan-4-yl)-6-methylpyrimidin-4-yl)amino)-5-(1-methyl-1H-pyrazol-3-yl)pyridin-2-yl)acetamide]?
**A.** IC50 (JH2 domain of human Tyk2): 0.01 to 0.1 µM; IC50 (Tyk2): ≥ 1 µM

**Q.** For `CC(=O)Nc1cc(Nc2cc(C)nc(C34CC(CO3)C4)n2)c(-c2ccn(C)n2)cn1` [Example 562, N-(4-((2-(2-oxabicyclo[2.1.1]hexan-1-yl)-6-methylpyrimidin-4-yl)amino)-5-(1-methyl-1H-pyrazol-3-yl)pyridin-2-yl)acetamide], which IC50 (JH2 domain of human Tyk2) is on record?
**A.** ≤ 0.01 µM

**Q.** And the IC50 (Tyk2)?
**A.** 0.01 to 0.1 µM

**Q.** What does the source list for `CC(=O)Nc1cc(Nc2cc(C)nc(C34COC(C3)C4)n2)c(-c2ccc3c(n2)OCC(C)(C)O3)cn1` [Example 563, N-(4-((2-(2-oxabicyclo[2.1.1]hexan-4-yl)-6-methylpyrimidin-4-yl)amino)-5-(2,2-dimethyl-2,3-dihydrO[1,4]dioxino[2,3-b]pyridin-6-yl)pyridin-2-yl)acetamide]?
**A.** IC50 (JH2 domain of human Tyk2): ≤ 0.01 µM; IC50 (Tyk2): 0.01 to 0.1 µM

**Q.** Which results are given for `CC(=O)Nc1cc(Nc2cc(C)nc(C34COC(C3)C4)n2)c(-c2cc3n(n2)CC(F)(F)C3)cn1` [Example 564, N-(4-((2-(2-oxabicyclo[2.1.1]hexan-4-yl)-6-methylpyrimidin-4-yl)amino)-5-(5,5-difluorO5,6-dihydrO4H-pyrrolo[1,2-b]pyrazol-2-yl)pyridin-2-yl)acetamide]?
**A.** IC50 (JH2 domain of human Tyk2): ≤ 0.01 µM; IC50 (Tyk2): ≤ 0.01 µM

**Q.** What does the source list for `COCc1ccc(-c2cnc(NC(C)=O)cc2Nc2ccnc(C3CCOC3)n2)nc1` (centres unmarked) [Example 567, N-(5-(methoxymethyl)-4′-((2-(tetrahydrofuran-3-yl)pyrimidin-4-yl)amino)-[2,3′-bipyridin]-6′-yl)acetamide]?
**A.** IC50 (JH2 domain of human Tyk2): ≤ 0.01 µM; IC50 (Tyk2): 0.01 to 0.1 µM

**Q.** For `COCc1ccc(-c2cnc(NC(C)=O)cc2Nc2cc(C)nc(C3CCOC3)n2)nc1` (centres unmarked) [Example 568, N-(5-(methoxymethyl)-4′-((6-methyl-2-(tetrahydrofuran-3-yl)pyrimidin-4-yl)amino)-[2,3′-bipyridin]-6′-yl)acetamide], which IC50 (JH2 domain of human Tyk2) is on record?
**A.** ≤ 0.01 µM

**Q.** What about the IC50 (Tyk2) of the same compound?
**A.** ≤ 0.01 µM

**Q.** `CCc1cc(Nc2cc(NC(C)=O)ncc2-c2ccc(COC)cn2)nc(C2CCOC2)n1` (centres unmarked) [Example 569, N-(4′-((6-ethyl-2-(tetrahydrofuran-3-yl)pyrimidin-4-yl)amino)-5-(methoxymethyl)-[2,3′-bipyridin]-6′-yl)acetamide] was tested. Which IC50 (JH2 domain of human Tyk2) did it give?
**A.** ≤ 0.01 µM

**Q.** And the IC50 (Tyk2)?
**A.** ≤ 0.01 µM

**Q.** `COCc1ccc(-c2cnc(NC(C)=O)cc2Nc2cc(COC)nc(C3CCOC3)n2)nc1` (centres unmarked) [Example 570, N-(5-(methoxymethyl)-4′-((6-(methoxymethyl)-2-(tetrahydrofuran-3-yl)pyrimidin-4-yl)amino)-[2,3′-bipyridin]-6′-yl)acetamide] was tested. Which IC50 (JH2 domain of human Tyk2) did it give?
**A.** ≤ 0.01 µM

**Q.** And the IC50 (Tyk2)?
**A.** 0.01 to 0.1 µM

**Q.** For `CC(=O)Nc1cc(Nc2cc(C)nc(C34COC(C3)C4)n2)c(-c2ccc(C(F)F)cn2)cn1` [Example 572, N-(4′-((2-(2-oxabicyclo[2.1.1]hexan-4-yl)-6-methylpyrimidin-4-yl)amino)-5-(difluoromethyl)-[2,3′-bipyridin]-6′-yl)acetamide], which IC50 (JH2 domain of human Tyk2) is on record?
**A.** ≤ 0.01 µM

**Q.** What about the IC50 (Tyk2) of the same compound?
**A.** ≤ 0.01 µM

**Q.** Which IC50 (JH2 domain of human Tyk2) does the source give for `CC(=O)Nc1cc(Nc2ccnc(C(C)(F)F)n2)c(-c2nc3c(s2)COCC3)cn1` [Example 573, N-(4-((2-(1,1-difluoroethyl)pyrimidin-4-yl)amino)-5-(6,7-dihydrO4H-pyrano[4,3-d]thiazol-2-yl)pyridin-2-yl)acetamide] here?
**A.** ≤ 0.01 µM

**Q.** And the IC50 (Tyk2)?
**A.** ≤ 0.01 µM

**Q.** How did the IC50 (JH2 domain of human Tyk2) turn out when `COC(C)c1ccc(-c2cnc(NC(C)=O)cc2Nc2cc(C)nc(C34COC(C3)C4)n2)nc1` (centres unmarked) [Example 575, N-(4′-((2-(2-oxabicyclo[2.1.1]hexan-4-yl)-6-methylpyrimidin-4-yl)amino)-5-(1-methoxyethyl)-[2,3′-bipyridin]-6′-yl)acetamide] was run?
**A.** ≤ 0.01 µM

**Q.** And the IC50 (Tyk2)?
**A.** ≤ 0.01 µM

**Q.** Which results are given for `CC(=O)Nc1cc(Nc2cc(C)nc(C34COC(C3)C4)n2)c(-c2cc(C(F)F)ccn2)cn1` [Example 576, N-(4′-((2-(2-oxabicyclo[2.1.1]hexan-4-yl)-6-methylpyrimidin-4-yl)amino)-4-(difluoromethyl)-[2,3′-bipyridin]-6′-yl)acetamide]?
**A.** IC50 (JH2 domain of human Tyk2): ≤ 0.01 µM; IC50 (Tyk2): 0.1 to 1 µM

**Q.** What does the source list for `CC(=O)Nc1cc(Nc2cc(C)nc(C34COC(C3)C4)n2)c(-c2ccc(C(C)F)cn2)cn1` (centres unmarked) [Example 577, N-(4′-((2-(2-oxabicyclo[2.1.1]hexan-4-yl)-6-methylpyrimidin-4-yl)amino)-5-(1-fluoroethyl)-[2,3′-bipyridin]-6′-yl)acetamide]?
**A.** IC50 (JH2 domain of human Tyk2): ≤ 0.01 µM; IC50 (Tyk2): ≤ 0.01 µM

**Q.** For `CC(=O)Nc1cc(Nc2cc(C)nc(C(C)(F)F)n2)c(-c2coc(C)n2)cn1` [Example 578, N-(4-((2-(1,1-difluoroethyl)-6-methylpyrimidin-4-yl)amino)-5-(2-methyloxazol-4-yl)pyridin-2-yl)acetamide], which IC50 (JH2 domain of human Tyk2) is on record?
**A.** ≤ 0.01 µM

**Q.** And the IC50 (Tyk2)?
**A.** ≤ 0.01 µM

**Q.** For `CC(=O)Nc1cc(Nc2ccnc(C(C)(F)F)n2)c(-c2cnn(C3CCC3)c2)cn1` [Example 579, N-(5-(1-cyclobutyl-1H-pyrazol-4-yl)-4-((2-(1,1-difluoroethyl)pyrimidin-4-yl)amino)pyridin-2-yl)acetamide], which IC50 (JH2 domain of human Tyk2) is on record?
**A.** 0.1 to 1 µM

**Q.** And the IC50 (Tyk2)?
**A.** ≥ 1 µM

**Q.** What does the source list for `CC(=O)Nc1cc(Nc2ccnc(C(C)(F)F)n2)c(-c2coc(C)n2)cn1` [Example 581, N-(4-((2-(1,1-difluoroethyl)pyrimidin-4-yl)amino)-5-(2-methyloxazol-4-yl)pyridin-2-yl)acetamide]?
**A.** IC50 (JH2 domain of human Tyk2): ≤ 0.01 µM; IC50 (Tyk2): 0.01 to 0.1 µM

**Q.** Which IC50 (JH2 domain of human Tyk2) does the source give for `CCc1cc(Nc2cc(NC(C)=O)ncc2-c2ccc(F)cn2)nc(C(C)(F)F)n1` [Example 582, N-(4′-((2-(1,1-difluoroethyl)-6-ethylpyrimidin-4-yl)amino)-5-fluorO[2,3′-bipyridin]-6′-yl)acetamide] here?
**A.** ≤ 0.01 µM

**Q.** What about the IC50 (Tyk2) of the same compound?
**A.** ≤ 0.01 µM

**Q.** With `CCc1cc(Nc2cc(NC(C)=O)ncc2-c2ccc(C#N)cn2)nc(C(C)(F)F)n1` [Example 583, N-(5-cyanO4′-((2-(1,1-difluoroethyl)-6-ethylpyrimidin-4-yl)amino)-[2,3′-bipyridin]-6′-yl)acetamide] as the compound, how does the IC50 (JH2 domain of human Tyk2) read?
**A.** ≤ 0.01 µM

**Q.** What about the IC50 (Tyk2) of the same compound?
**A.** ≤ 0.01 µM

**Q.** Which IC50 (JH2 domain of human Tyk2) does the source give for `COCCOc1cc(Nc2cc(NC(C)=O)ncc2-c2ccncn2)nc(C(C)(F)F)n1` [Example 585, N-(4-((2-(1,1-difluoroethyl)-6-(2-methoxyethoxy)pyrimidin-4-yl)amino)-5-(pyrimidin-4-yl)pyridin-2-yl)acetamide] here?
**A.** ≤ 0.01 µM

**Q.** And the IC50 (Tyk2)?
**A.** ≤ 0.01 µM

**Q.** For `COc1cncc(Nc2cc(NC(C)=O)ncc2-c2ccc(F)cn2)n1` [Example 586, N-(5-fluorO4′-((6-methoxypyrazin-2-yl)amino)-[2,3′-bipyridin]-6′-yl)acetamide], which IC50 (JH2 domain of human Tyk2) is on record?
**A.** ≤ 0.01 µM

**Q.** And the IC50 (Tyk2)?
**A.** 0.01 to 0.1 µM

**Q.** Which results are given for `COCCn1ncc(-c2cnc(NC(C)=O)cc2Nc2cc(OC3CC3)nc(C(C)(F)F)n2)n1` [Example 587, N-(4-((6-cyclopropoxy-2-(1,1-difluoroethyl)pyrimidin-4-yl)amino)-5-(2-(2-methoxyethyl)-2H-1,2,3-triazol-4-yl)pyridin-2-yl)acetamide]?
**A.** IC50 (JH2 domain of human Tyk2): ≤ 0.01 µM; IC50 (Tyk2): ≤ 0.01 µM

**Q.** Which IC50 (JH2 domain of human Tyk2) does the source give for `COCc1ccc(-c2cnc(NC(C)=O)cc2Nc2cncc(OC(F)F)n2)nc1` [Example 588, N-(4′-((6-(difluoromethoxy)pyrazin-2-yl)amino)-5-(methoxymethyl)-[2,3′-bipyridin]-6′-yl)acetamide] here?
**A.** ≤ 0.01 µM

**Q.** And the IC50 (Tyk2)?
**A.** 0.01 to 0.1 µM

**Q.** Which IC50 (JH2 domain of human Tyk2) does the source give for `CC(=O)Nc1cc(Nc2cc(C)nc(C(C)(F)F)n2)c(-c2ccccn2)cn1` [Example 591, N-(4′-((2-(1,1-difluoroethyl)-6-methylpyrimidin-4-yl)amino)-[2,3′-bipyridin]-6′-yl)acetamide] here?
**A.** ≤ 0.01 µM

**Q.** And the IC50 (Tyk2)?
**A.** ≤ 0.01 µM

**Q.** Which results are given for `CC(=O)Nc1cc(Nc2cc(C)nc(C(C)(F)F)n2)c(-c2nc(C)co2)cn1` [Example 592, N-(4-((2-(1,1-difluoroethyl)-6-methylpyrimidin-4-yl)amino)-5-(4-methyloxazol-2-yl)pyridin-2-yl)acetamide]?
**A.** IC50 (JH2 domain of human Tyk2): ≤ 0.01 µM; IC50 (Tyk2): 0.01 to 0.1 µM
